Here are results for one molecule from patent US8722731B2, “Furanyl compounds and the use thereof” (NovoMedix, LLC, priority 2010, dated 2014).

One assay relates to MDA-MB-415. Briefly: IC50 cell-based assay, adherent cells, MDA-MB-415. The note with it: Homo sapiens, Breast, adenocarcinoma, 72 hours, read-out: IC50 of Compounds in Adherent Cell Types. On the procedure: (§1) In one embodiment, the IC50s of the compounds provided herein were determined in cell-based assays using adherent cells. In one embodiment, the activity of the compounds provided herein were determined in a cell-based assay using the triple negative breast cancer cell line MDA-MB-468. In one embodiment, the adherent cells used in the cell-based assays may be a cell type selected from Table 1. In one embodiment, the cell-based assay may be carried out as provided herein. On day 0, cells were seeded at 20,000 cells per well in 100 µL of media into individual wells of a 96-well tissue culture plate. The next day, compounds were diluted to twice the desired final concentration and added in 100 µL of media for a final volume of 200 μL. Standard solutions for each compound were prepared at 1000× concentration in DMSO. The highest concentration was 30 mM. Serial 1:1 dilutions were made from there for a 6- or 9-point curve (e.g., 30 mM, 15 mM, 7.5 mM, etc). Compounds were then diluted 1:500 in media, and 100 µL of the resulting solution was added to each well for a final dilution of 1:1000. […] Cells were placed back in the incubator, and the absorbance at 490 nm was read after 2-3 hours. […] “Percent Viability” was determined by subtracting the average background value (media only) and expressed as a ratio to the average value obtained from cells treated with only DMSO.

A further assay has as its system MDA-MB-435. The assay is described as follows: IC50 cell-based assay, adherent cells, MDA-MB-435. The note with it: Homo sapiens, Breast, carcinoma—ductal, 72 hours, read-out: IC50 of Compounds in Adherent Cell Types. The procedure:
as §1

Another assay has as its system HEK-293. Briefly: IC50 cell-based assay, adherent cells, HEK-293. The note with it: Homo sapiens, HEK293, Kidney, embryonic, 72 hours, read-out: IC50 of Compounds in Adherent Cell Types. The procedure: as §1
The next assay concerns BxPc-3. Briefly: IC50 cell-based assay, adherent cells, BxPc-3. The settings on record: Homo sapiens, Pancreas, adenocarcinoma, 72 hours, read-out: IC50 of Compounds in Adherent Cell Types. On the procedure: as §1
The next assay relates to MS1. The assay is described as follows: IC50 cell-based assay, adherent cells, MS1. The note with it: Mus musculus, MS-1, Pancreas, angiosarcoma, 72 hours, read-out: IC50 of Compounds in Adherent Cell Types. On the procedure:
as §1

The subject of another assay is XPA-1. The assay is described as follows: IC50 cell-based assay, adherent cells, XPA-1. The settings on record: Pancreas, 72 hours, read-out: IC50 of Compounds in Adherent Cell Types. The procedure:
as §1

A further assay relates to Du145. The assay is described as follows: IC50 cell-based assay, adherent cells, Du145. The settings on record: Homo sapiens, DU-145, Prostate, carcinoma, 72 hours, read-out: IC50 of Compounds in Adherent Cell Types. The procedure: as §1
The test system of a further assay is K562. The assay is described as follows: IC50 cell-based assay, suspension cells, K562. The note with it: Homo sapiens, Leukemia, CML, read-out: IC50 of Compounds in Suspension Cell Types. On the procedure:
(§2) In one embodiment, the IC50s of the compounds provided herein were determined in cell-based assays using adherent cells. In one embodiment, the activity of the compounds provided herein were determined in a cell-based assay using the triple negative breast cancer cell line MDA-MB-468. In one embodiment, the adherent cells used in the cell-based assays may be a cell type selected from Table 1. In one embodiment, the cell-based assay may be carried out as provided herein. On day 0, cells were seeded at 20,000 cells per well in 100 µL of media into individual wells of a 96-well tissue culture plate. The next day, compounds were diluted to twice the desired final concentration and added in 100 µL of media for a final volume of 200 μL. […] Cells were placed back in the incubator, and the absorbance at 490 nm was read after 2-3 hours. […] “Percent Viability” was determined by subtracting the average background value (media only) and expressed as a ratio to the average value obtained from cells treated with only DMSO.
(§3) In one embodiment, the IC50s of the compounds provided herein were determined in cell-based assays using suspension cells. In one embodiment, the activity of the compounds provided herein were determined in a cell-based assay using the JeKo-1 cell line (mantle cell lymphoma) or the Pfeiffer cell line (diffuse large B-cell lymphoma). […]

A further assay concerns SEMK. Briefly: IC50 cell-based assay, suspension cells, SEMK. The settings on record: Leukemia, read-out: IC50 of Compounds in Suspension Cell Types. The procedure:
as §2, §3

In the case of `O=C(Nc1cc(C(F)(F)F)cc(C(F)(F)F)c1)c1cc(-c2ccccc2)oc1C(F)(F)F` [Compound 1, 5-Phenyl-2-trifluoromethyl-furan-3-carboxylic acid (3,5-bis-trifluoromethyl-phenyl)-amide], the IC50 (as a rule, the point on the concentration scale where inhibition reaches its midpoint) is less than 5 µM in the assay on MDA-MB-415; less than 5 µM in the assay with MDA-MB-435; less than 5 µM in the assay on HEK-293; 5 to 10 µM in the assay with BxPc-3; less than 5 µM in the assay on MS1; 5 to 10 µM in the assay with XPA-1. In addition, the IC50 is 5 to 10 µM with Du145, less than 5 µM with K562 and less than 5 µM in the assay with SEMK.
